According to patent publication US10758609B2, “Cross-reactive T-cell epitopes of HIV, SIV, and FIV for vaccines in humans and cats” (priority 2015, dated 2020):

How the values were obtained:
FIVFC1 = assay: FIV enhancement and suppression (E/S) analysis of in vitro FIV infection of feline PBMC; type: cell-based, feline immunodeficiency virus; settings: FIV peptides; in vitro FIV infection of uninfected cat PBMC
Protocol: FIV viral enhancement or suppression was determined using a 48-well modification of the method described for detecting FIV enhancing activity of IFNγ and FIV suppressive activity of IFNα [37]. […] MAP1c contained four branched chains of peptide Fp4-3. T-cell mitogen concanavalin A (ConA) at 4 μg/mL was used as an infection enhancing control. Six hours after the culturing with peptide, MAP, or ConA, varying dilutions of FIVFC1 were added to the wells. Seventy-two hours later the cells were re-cultured in fresh culture media with ConA-stimulated autologous PBMC (0.25-0.5×10^6) using the same amount of corresponding peptide, MAP, ConA or media. On Day 7, 10, and 13 of culture, 0.5 mL of culture fluid was collected and 0.5 mL of fresh media added to maintain a consistent volume. The harvested culture samples were analyzed for FIV titer using the previously described RT assay. The results are shown as the end-point dilution titer from two studies using PBMC from different SPF donors.
Statistical analysis. The statistically significant differences between the end-point dilution titers of the peptide or MAP culture samples and either the virus control samples or specific MAP culture samples were calculated using a paired Student t-test with a two-tailed distribution (SigmaPlot version 11.0). Statistical comparisons between pre and post-vaccination(s) were similarly performed. The comparison was considered statistically significant when p<0.05.

[1] = test system: PBMC from FIV-vaccinated cats; assay: Feline IFNγ ELISpot of PBMC from vaccinated cats; type: cell-based, cat; settings: for IFNγ, frequency of responders: FIV peptides, FIV-vaccinated cats (prototype dual-subtype vaccine)
Protocol: (§1) IFNγ and IL2 ELISpot analyses were performed using feline IFNγ ELISpot and feline IL2 ELISpot kits (R&D Systems, Cat# SEL764 and SEL1890) as described. The threshold is defined as ≥50 spot forming units (SFU) per 1×10^6 PBMC when counted with MVS ELISpot Reader (MVS Pacific, LLC). Each result is an average of the duplicate samples after subtraction of the average value of the media controls.
(§2) Concurrently, the overlapping peptide pools of FIV structural/enzyme proteins were used to stimulate PBMC and T cells from FIV-vaccinated cats. These cats were vaccinated with prototype dual-subtype FIV vaccine which was the prototype to our commercial FIV vaccine (Coleman et al., 2014). The feline assays (Example 1) equivalent to those of human assays (Sanou et al., 2013; Roff et al., 2015) were used except for ICS analysis. In place of ICS for cytolysin/cytotoxins, IL2 ELISpot analysis was performed. […] The results for FIV-vaccinated cats included IFNγ and IL2 productions and CD3^+CD4+ and CD3^+CD8^+ T-cell proliferation (Table 9, the second set of results).
(§3) The feline IFNγ and L2 ELISpot analyses of PBMC to FIV MAPs and peptides were performed as previously described (Abbott et al. (2012)) using feline IFNγ modular kit (R&D Systems, Minneapolis, Minn.) and feline IL2 modular kit (R&D Systems). All results shown in the figures (FIGS. 8A-1, 8B-1, 8A-2, 8B-2, 8A-3, 8B-3) are after subtracting the average value of the results from all control cats.
(§4) The second parameter evaluated was the ability of the peripheral blood mononuclear cells (PBMC) from vaccinated and control cats to produce IL2 and interferon-γ (IFNγ) proteins in responses to FIV MAPs and peptides (FIGS. 8A-1, 8A-2, 8A-3, 8B-1, 8B-2, 8B-3) using feline IL2 and IFNγ ELISpot assays (Aranyos et al. (2016); Abbott et al. (2012)). IL2 enhances the proliferation of FIV-specific CD4^+ T cells and CD8^+ T cells. IFNγ is known enhance the FIV-specific CTL activities in vaccinated cats (Abbas et al. (2015)).

[2] = test system: feline CD3^+CD4^+ T cells; assay: CFSE-based feline CD3+CD4+ T-cell proliferation; set-up: species or system cat; settings: FIV peptides; FIV-vaccinated cats
Protocol: (§5) Carboxyfluorescein diacetate succinimide ester (CFSE)-proliferation was performed according to the manufacturer's protocol (Invitrogen, Grand Island, N.Y.) and processed using a previously described modification. The modification consisted of 2.5×10^5 CFSE-labeled feline PBMC stimulated for 5 days (37° C., 5% CO2) with 4 μg/mL peptide in culture media (RPMI medium 25 µg/mL gentamycin, and 10% heat-inactivated fetal bovine serum (FBS)). Peptide pools consisted of 3-5 overlapping peptides of 4 μg/mL each. The antibodies used for flow cytometry based proliferation analysis consisted of murine anti-feline (Fe) CD3 monoclonal antibody (MAb clone kindly provided by Drs. Yorihiro Nishimura and Takayuki Miyazawa; described in [32]) combined with secondary goat anti-mouse IgG3-APC/CY7 MAb (SouthernBiotech, Birmingham, Ala.; Cat#1100-19); and murine anti-FeCD4-PE MAb (SouthernBiotech, Cat#8130-09); and murine anti-FeCD8 MAb (MAb clone kindly provided by Dr. Nazareth Gengozian, described in [33]) with secondary goat anti-mouse IgG2a-PE/CY7 (Southern Biotech, Cat#1080-17). The murine anti-B220-APC MAb for detecting feline B cells (SouthernBiotech, Cat#1665-11) and previously described MAbs for CFSE were used for FACS phenotyping. Both FACS phenotyping and CFSE-proliferation analyses were performed with BD LSRII and FACSDiva™ Software (BD Biosciences, San Jose, Calif.). The final value for each sample was derived after subtraction of the average value of the media controls using a positive threshold of ≥1 CFSE^low.
as §2
(§6) Carboxyfluorescein diacetate succinimide ester (CFSE)-proliferation analysis was according to the manufacturer's protocol (Invitrogen-Fisher, Carlsbad, Calif.) and processed as previously described (Roff et al. (2015)) using the following modifications: anti-feline CD3 antibody ((clone NZM1), a generous gift from T. Miyazawa (Univ. of Tokyo, Japan)) in combination with APC-conjugated anti-mouse IgG3 (Southern Biotech, Birmingham, Ala.), PE-conjugated anti-feline CD4 antibody (Southern Biotech), and anti-feline CD8 antibody (gift from N. Gengozian, University of Tennessee (Gengozian et al. (1997))) in combination with PE/Cy7-conjugated anti-mouse IgG2b (Southern Biotech) to detect the proliferation of feline CD3^+CD4+ T cells and feline […]. All results shown in the figures (FIGS. 7A-1, 7B-1, 7A-2, 7B-2, 7A-3, 7B-3) are after subtracting the average value of each results from all control cats. The threshold of CFSE proliferation is ≥0.5 CFSE^low. […]

[3] = test system: feline CD3^+CD8^+ T cells; assay: CFSE-based feline CD3+CD8+ T-cell proliferation; set-up: species or system cat; settings: for CD8^+ T (T-cell proliferation), frequency of responders: FIV peptides
Protocol: as §5, §2, §6

[4] = test system: PBMC from FIV-vaccinated cats; assay: Feline IL2 ELISpot of PBMC from vaccinated cats; type: cell-based, cat; settings: FIV peptides
Protocol: as §1, §2, §3, §4

[5] = cats of Group 1, MAP Vaccine Trial 1 (FIG. 3)

## KKKSGKWRLIDFRVLNKL [FRT3-3/4]
FIVFC1
  FIV Test E/S (enhancer/suppressor analysis): ↓
[1]
  IFNγ, frequency of responders: +++ (40.1%-54% (+++))
[1]; [5]
  IFNγ production: 531 SFU/10^6 PBMC
[2]
  CDC4^+ T (T-cell proliferation), frequency of responders: — (0%-1.4%(—))
[3]; FIV-vaccinated cats
  CD8^+ T (T-cell proliferation), frequency of responders: +++ (40.1%-54% (+++))
[3]; FIV-vaccinated cats, in vitro analyses (Table 9)
  Responder frequency in CD8+ T-cell proliferation: 44.4%
[3]; [5]
  % CD8+ T-cell CFSE^low over % CD4+ T-cell CFSE^low ratio (CD8/CD4 response ratio): 9
[4]
  IL2, frequency of responders: ++++ (>54% (++++))

## RAWYLEALGKLAAIKAK [Fp10-2/3, overlapping peptide of MAP6]
FIVFC1
  FIV Test E/S (enhancer/suppressor analysis): ↓
[1]
  IFNγ, frequency of responders: — (0%-1.4%(—))
[2]
  CDC4^+ T (T-cell proliferation), frequency of responders: — (0%-1.4%(—))
[3]; FIV-vaccinated cats
  CD8^+ T (T-cell proliferation), frequency of responders: — (0%-1.4%(—))
[4]
  IL2, frequency of responders: +++ (40.1%-54% (+++))
